Experimental findings from patent US6399583B1, “Hybrid anthracyclines from genetically engineered streptomyces galilaeus strains, process for production and uses thereof” (Galilaeus Oy, priority 1998, dated 2002) are described below.

Assay [1] concerns MES-SA/D×5 uterine sarcoma cells (doxorubicin-resistant, MDR). The assay can be described thus: Cytotoxicity assay, luminescence ATP detection, MES-SA/D×5. As to conditions: MES-SA/D×5 cells, three days incubation, ATP content; highest concentration 10^-5 M; read-out: ED50 (nM) MES-SA/D × 5. Type of assay: cell-based, human. Here is the method: (§1) The cytotoxicities of the new anthracyclines were tested in vitro with two cell lines: human uterine sarcomas MES-SA (CRL-1976; American Type Culture Collection (ATCC), Rockville, Md., USA) and MES-SA/D×5 (CRL-1977; ATCC, Rockville, Md., USA). MES-SA/D×5 has been developed by growing MES-SA cells in increasing concentrations of doxorubicin (Harker and Sikic, 1985).
(§2) Monolayer cultures were grown in McCoy's 5A medium with L-glutamine (Gibco BRL) supplemented with 10% FBS (Foetal Bovine Serum, Gibco BRL). No antibiotics were added. As the resistance is stable for at least 20 passages, the MES-SA/D×5 cells were grown without anthracycline selection (Harker and Sikic, 1985). Cells were maintained at 37° C. with 5% CO2 and subcultured every 3-5 days.
(§3) The cytotoxicity tests were performed in 96-well microtiter plates (sterile white plates with clear bottom, Corning Costar Corporation, Cambridge, Mass., USA). The anthracyclines were pipetted into the plates in 10 μl of ethanol, pure ethanol was used for control plates. Daunorubicin and aclarubicin were used as positive controls. When the ethanol had evaporated, the cells were seeded into the plates in 100 μl of appropriate medium. The number of cells seeded per well was 2500 with MES-SA, 3000 with MES-SA/D×5, 3000 with LL/2, 2000 with B16-F0 and B16-F1, 2000 with KLN-205 and 8000 with MLTC-1. The ATP content of the cells was measured after incubating the cells for three days at 37° C. with 5% CO2.
(§4) The growth medium was removed by turning the plates over, and 200 μl of ATP extraction reagent, Somalyze, were added to the wells. The plates were then incubated for 30 minutes at room temperature. The ATP measurement was performed with Luminoskan luminometer (Labsystems Oy, Helsinki, Finland) at 22° C. 20 μl of ATP monitoring reagent containing luciferin and luciferase was dispensed, and an integral measurement of 10 s with 2 s lag time was performed for each well. All reagents used were supplied by Bio-Orbit Oy, Turku, Finland.
(§5) The direct luminometer output (in relative light units, RLUS) was used to calculate the cytotoxic effect. This light signal is directly proportional to the amount of […] in a wide range (determined with Bio-Orbit ATP standard, data not shown). On the other hand, the amount of ATP is directly proportional to the amount of living cells (Kangas et al., 1984). The results are expressed as percentages of the control value of untreated cells. An IC50 value (the drug concentration resulting to an ATP signal of 50% of the untreated control signal) was graphically estimated from the % of control vs. drug concentration plot.

The test system of a further assay is SK-N-MC. The assay can be described thus: Cytotoxicity assay, ATP detection, SK-N-MC. Conditions: SK-N-MC cells in vitro; read-out: ED50 SK-N-MC. The class given is cell-based.
For assay [2], the system named is KLN-205 lung squamous cell carcinoma. The assay can be described thus: Cytotoxicity assay, ATP detection, KLN-205. The class given is cell-based, mouse. As to conditions: KLN-205 cells in vitro; read-out: ED50 KLN-205. Here is the method:
as §3, §4, §5
(§6) H075-4a was also tested with several mouse cell lines in vitro (all were purchased from ATCC, Rockville, Md., USA): Lewis lung carcinoma (LL/2) (CRL-1642), B16-F0 melanoma (CRL-6322), B16-F1 melanoma (CRL-6323), KLN-205 lung squamous cell carcinoma (CRL-1453) and MLTC-1 leydig cell tumor (CRL-2065) using daunomycin, aclarubicin and H075-1a (MA 144U1) as references.
(§7) All cells grew as monolayers and were cultured at 37° C. with 5% CO2 according to ATCC standard instructions for each cell line: LL/2 in Dulbecco's modified Eagle's medium with 4.5 g/l glucose and 10% FCS, B16-F0 and B16-F1 in MEM (Eagle) in Earle's BSS with non-essential amino acids and 10% FCS, KLN-205 in MEM (Eagle) in Earle's BSS with non-essential amino acids and 10% FCS, MLTC-1 in RPMI 1640 with 25 mM HEPES and 10% FBS. All media were purchased from Gibco BRL, the serum was Gibco BRL Foetal Bovine Serum. […]

Another assay concerns B16-F1 melanoma. The assay can be described thus: Cytotoxicity assay, ATP detection, B16-F1. The class given is cell-based, mouse. Conditions: B16-F1 cells in vitro; read-out: ED50 B16-F1. Here is the method: as §3, §4, §5, §6, §7
In a further assay the test system is MLTC-1 leydig cell tumor. The experiment in a line: Cytotoxicity assay, ATP detection, MLTC-1. The class given is cell-based, mouse. As to conditions: MLTC-1 cells in vitro; read-out: ED50 MLTC-1. Here is the method:
as §3, §4, §5, §6, §7

The next assay has as its system B16-F0 melanoma. The experiment in a line: Cytotoxicity assay, ATP detection, B16-F0. As to conditions: B16-F0 cells in vitro; read-out: ED50 B16-F0. Type of assay: cell-based, mouse. Here is the method:
as §3, §4, §5, §6, §7

In assay [3] the test system is MES-SA human uterine sarcoma cells. The experiment in a line: Cytotoxicity assay, luminescence ATP detection, MES-SA. The class given is cell-based. As to conditions: three days incubation, ATP content, highest concentration 10^-5 M, read-out: ED50 (nM) MES-SA. Here is the method: as §1, §2, §3, §4, §5
Assay [4] has as its system Lewis lung carcinoma (LL/2). The experiment in a line: Cytotoxicity assay, ATP detection, LL/2. Type of assay: cell-based, mouse. As to conditions: LL/2 cells in vitro; read-out: ED50 LL/2. Here is the method: as §3, §4, §5, §6, §7
A further assay deals with P388 leukemia. The experiment in a line: Cytotoxic activity in vivo: P388 leukemia model. Conditions: 10^6 P388 cells i.p. day 0. Further details: species or system mice. An excerpt: P388 leukemia was maintained by serial intraperitoneal (i.p.) transplantations in DBA/2JBom female mice purchased from M & B A/S, Ry, Denmark. The animals were maintained at the facilities of Central Animal Laboratory, University of Turku. The management of the animal unit is based on and followed the guidelines: “European Convention for the protection of Vertebrate Animals used for Experimental and other Scientific Purposes, European Treaty Series No. 123 (EU No. 609/86), Official Journal of European Communities No. L 358, Strasbourg Nov. 24, 1986”, and “The Statute No. 1360/90 of the Finnish Law, Helsinki Dec. 21, 1990: Asetus kokeellisiin ja muihin tieteellisiin tarkoituksiin käytettävien selkärankaisten eläinten suojelemiseksi tehdyn eurooppalaisen yleissopimuksen voimaansaattamisesta. Suomen s{umlaut over (aa)}doskokoelma.”
The in vivo tests were started by injecting 10^6 P388 cells suspended in Dulbecco's phosphate buffered saline i.p. in mice on day 0. Groups of 3 mice were used. The drugs were administered i.p. on day 1 on the basis of individual body weight. The control group received vehicle (10% ethanol in Dulbecco's phosphate buffered saline).

Where only a bound is given, the exact number is not on record here.

For the compound `CCC1(O)CC(OC2CC(N(C)C)C(OC3CC(O)C(OC4CC(O)C(O)C(C)O4)C(C)O3)C(C)O2)c2c(cc3c(c2O)C(=O)c2c(O)cccc2C3=O)C1C(=O)OC` (stereo not drawn) [Akv-Rhn-dF-dF, aklavinone-rhodosamine-2-deoxyfucose-2-deoxyfucose], the EC50 in [1] turned out to be 540 nM; with SK-N-MC it was 30 nM; in assay [2] it was 90 nM; in the assay with B16-F1 melanoma, 12 nM; in the assay with MLTC-1 leydig cell tumor, 600 nM; in the assay with B16-F0 melanoma, 14 nM. Also, the figures for the EC50 in [3] and in assay [4] were 6 nM and 38 nM, respectively.

`CCC1(O)CC(OC2CC(N(C)C)C(OC3CC(O)C(OC4CC(O)C(O)C(C)O4)C(C)O3)C(C)O2)c2c(cc3c(c2O)C(=O)c2c(O)cccc2C3=O)C1O` (stereo not drawn) [Compound H075-2a]: the EC50 in [1] was more than 10000 nM; in assay [3], 3200 nM.

Consider `CCC1(O)CC(OC2CC(N(C)C)C(OC3CC(O)C(O)C(C)O3)C(C)O2)c2c(cc3c(c2O)C(=O)c2c(O)cccc2C3=O)C1O` (stereo not drawn) [Compound H075-2b], for which the EC50 in assay [1] was more than 10000 nM; in assay [3], 400 nM.

Regarding `CCC1(O)CC(OC2CC(O)C(OC3CC(O)C(OC4CC(O)C(O)C(C)O4)C(C)O3)C(C)O2)c2c(cc3c(c2O)C(=O)c2c(O)cccc2C3=O)C1O` (stereo not drawn) [Compound H075-2d], the EC50 in assay [1] and in [3] was more than 10000 nM in each case.

Take `COC(=O)C1c2cc3c(c(O)c2C(OC2CC(O)C(OC4CC(O)C(OC5CC(O)C(O)C(C)O5)C(C)O4)C(C)O2)CC1(C)O)C(=O)c1c(O)cccc1C3=O` (stereo not drawn) [Compound H075-3d]: the EC50 in assay [1] and in [3] was more than 10000 nM in each case.

Turning to `COC(=O)C1c2c(O)c3c(c(O)c2C(OC2CC(O)C(OC4CC(O)C(O)C(C)O4)C(C)O2)CC1(C)O)C(=O)c1c(O)cccc1C3=O` (stereo not drawn) [Compound H075-5e], the EC50 is more than 10000 nM in assay [1] and 5200 nM in assay [3].

As to `CC1OC(OC2C(C)OC(OC3CC(C)(O)C(O)c4cc5c(c(O)c43)C(=O)c3c(O)cccc3C5=O)CC2N(C)C)CC(O)C1O` (stereo not drawn) [Compound H075-6b], the figures for the EC50 in assay [1] and in assay [3] were more than 10000 nM and 200 nM, respectively.

Turning to `CC1OC(OC2CC(C)(O)C(O)c3cc4c(c(O)c32)C(=O)c2c(O)cccc2C4=O)CC(N(C)C)C1O` (stereo not drawn) [Compound H075-6c], the EC50 in assay [1] was more than 10000 nM; in assay [3], 4200 nM.

In the case of `CCC1(O)Cc2cc3c(c(O)c2C(OC2CC(N(C)C)C(OC4CC(O)C(OC5CC(O)C(O)C(C)O5)C(C)O4)C(C)O2)C1)C(=O)c1c(O)cccc1C3=O` (stereo not drawn) [Compound H075-8a], the values for the EC50 in assay [1] and in assay [3] were more than 10000 nM and 130 nM, respectively.

`CCC1(O)CC(OC2CC(N(C)C)C(OC3CC(O)C(OC4CC(O)C(O)C(C)O4)C(C)O3)C(C)O2)c2c(O)c3c(c(O)c2C1O)C(=O)c1cccc(O)c1C3=O` (stereo not drawn) [Compound H075-10a]: the “Median survival days (range)” value with P388 leukemia (4 mg/kg i.p. on day 1) was 15 (14-17) days; in the assay with P388 leukemia (8 mg/kg i.p. on day 1), 14 (13-15) days; with P388 leukemia (16 mg/kg i.p. on day 1), 14 (14-15) days. Besides, the EC50 in [1] stood at 1300 nM; in assay [3], 30 nM.

With `CC1OC(OC2C(C)OC(OC3CC(C)(O)C(O)c4c(O)c5c(c(O)c43)C(=O)c3c(O)cccc3C5=O)CC2N(C)C)CC(O)C1O` (stereo not drawn) [Compound H075-11b], the results for the “Median survival days (range)” value with P388 leukemia (4 mg/kg i.p. on day 1), in the assay with P388 leukemia (8 mg/kg i.p. on day 1) and in the assay with P388 leukemia (16 mg/kg i.p. on day 1) were 13 (12-13) days, 14 (13-15) days and 16 (15-19) days, respectively. Besides, the EC50 was 3500 nM in assay [1] and 60 nM in assay [3].

As to `CC1OC(OC2C(O)CC(OC3CC(C)(O)C(O)c4c(O)c5c(c(O)c43)C(=O)c3c(O)cccc3C5=O)OC2C)CC(O)C1O` (stereo not drawn) [Compound H075-11e], the EC50 in assay [1] was more than 10000 nM; in [3] it was 800 nM.
